Experimental data: the supplement of paper PMC10307832

Tests used:
Assay in all cases: relative viability (nuclei count vs DMSO), 5 days (fraction); higher = more cells survive
NCI-H1734 = test system: NCI-H1734
Method in brief: (§1)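 Lung cancer cell lines in 1536-well plates got either a single drug or a fixed anchor-drug dose together with five library-drug doses (not always all listed) in √10 steps, by pin tool, on the day after seeding. Nuclei were counted after 5 days, and relative viability is the treated-to-vehicle ratio of nuclei counts. Values are medians of duplicate plates.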

EKVX = test system: EKVX
Method in brief: as §1

NCI-H2228 = test system: NCI-H2228
Method in brief: as §1

PC-14 = test system: PC-14
Method in brief: as §1

NCI-H1355 = test system: NCI-H1355
Method in brief: as §1

COR-L 105 = test system: COR-L 105
Method in brief: as §1

NCI-H2009 = test system: NCI-H2009
Method in brief: as §1

HCC-15 = test system: HCC-15
Method in brief: as §1

HOP-62 = test system: HOP-62
Method in brief: as §1

SK-MES-1 = test system: SK-MES-1
Method in brief: as §1

COR-L23 = test system: COR-L23
Method in brief: as §1

NCI-H2170 = test system: NCI-H2170
Method in brief: as §1

NCI-H1755 = test system: NCI-H1755
Method in brief: as §1

NCI-H1993 = test system: NCI-H1993
Method in brief: as §1

UMC-11 = test system: UMC-11
Method in brief: as §1

NCI-H358 = test system: NCI-H358
Method in brief: as §1

NCI-H838 = test system: NCI-H838
Method in brief: as §1

NCI-H647 = test system: NCI-H647
Method in brief: as §1

NCI-H2347 = test system: NCI-H2347
Method in brief: as §1

HARA = test system: HARA
Method in brief: as §1

## C=C1C(=O)O[C@@H](CCCCCCCC)[C@@H]1C(=O)O [C-75] + C[C@@H](Oc1cc(-c2cnn(C3CCNCC3)c2)cnc1N)c1c(Cl)ccc(F)c1Cl [Crizotinib] (partner 1 µM)
NCI-H1734; first compound 0.08 µM
  relative viability: 0.692
NCI-H1734; first compound 0.253 µM
  relative viability: 0.624
NCI-H1734; first compound 0.8 µM
  relative viability: 0.618
NCI-H1734; first compound 2.53 µM
  relative viability: 0.557
NCI-H1734; first compound 8 µM
  relative viability: 0.69
EKVX; first compound 0.08 µM
  relative viability: 1.01
EKVX; first compound 0.253 µM
  relative viability: 0.983
EKVX; first compound 0.8 µM
  relative viability: 0.897
EKVX; first compound 2.53 µM
  relative viability: 0.85
EKVX; first compound 8 µM
  relative viability: 0.893
NCI-H2228; first compound 0.08 µM
  relative viability: 0.548
NCI-H2228; first compound 0.253 µM
  relative viability: 0.472
NCI-H2228; first compound 0.8 µM
  relative viability: 0.412
NCI-H2228; first compound 2.53 µM
  relative viability: 0.438
NCI-H2228; first compound 8 µM
  relative viability: 0.596
PC-14; first compound 0.08 µM
  relative viability: 0.836
PC-14; first compound 0.253 µM
  relative viability: 0.905
PC-14; first compound 0.8 µM
  relative viability: 0.893
PC-14; first compound 2.53 µM
  relative viability: 0.741
PC-14; first compound 8 µM
  relative viability: 0.998
NCI-H1355; first compound 0.08 µM
  relative viability: 1.05
NCI-H1355; first compound 0.253 µM
  relative viability: 1.01
NCI-H1355; first compound 0.8 µM
  relative viability: 0.97
NCI-H1355; first compound 2.53 µM
  relative viability: 1.1
NCI-H1355; first compound 8 µM
  relative viability: 1.01
COR-L 105; first compound 0.08 µM
  relative viability: 0.707
COR-L 105; first compound 0.253 µM
  relative viability: 0.808
COR-L 105; first compound 0.8 µM
  relative viability: 0.949
COR-L 105; first compound 2.53 µM
  relative viability: 0.921
COR-L 105; first compound 8 µM
  relative viability: 0.566
NCI-H2009; first compound 0.08 µM
  relative viability: 1.04
NCI-H2009; first compound 0.253 µM
  relative viability: 1.01
NCI-H2009; first compound 0.8 µM
  relative viability: 0.987
NCI-H2009; first compound 2.53 µM
  relative viability: 0.78
NCI-H2009; first compound 8 µM
  relative viability: 0.968
HCC-15; first compound 0.08 µM
  relative viability: 0.82
HCC-15; first compound 0.253 µM
  relative viability: 0.885
HCC-15; first compound 0.8 µM
  relative viability: 0.764
HCC-15; first compound 2.53 µM
  relative viability: 0.699
HCC-15; first compound 8 µM
  relative viability: 0.835
HOP-62; first compound 0.08 µM
  relative viability: 0.99
HOP-62; first compound 0.253 µM
  relative viability: 0.849
HOP-62; first compound 0.8 µM
  relative viability: 0.81
HOP-62; first compound 2.53 µM
  relative viability: 0.824
HOP-62; first compound 8 µM
  relative viability: 1
SK-MES-1; first compound 0.08 µM
  relative viability: 1.04
SK-MES-1; first compound 0.253 µM
  relative viability: 0.997
SK-MES-1; first compound 0.8 µM
  relative viability: 0.953
SK-MES-1; first compound 8 µM
  relative viability: 0.941
COR-L23; first compound 0.08 µM
  relative viability: 0.669
COR-L23; first compound 0.253 µM
  relative viability: 0.613
COR-L23; first compound 0.8 µM
  relative viability: 0.57
COR-L23; first compound 2.53 µM
  relative viability: 0.703
COR-L23; first compound 8 µM
  relative viability: 0.642
NCI-H2170; first compound 0.08 µM
  relative viability: 1.25
NCI-H2170; first compound 0.253 µM
  relative viability: 1.28
NCI-H2170; first compound 0.8 µM
  relative viability: 1.23
NCI-H2170; first compound 2.53 µM
  relative viability: 1.07
NCI-H2170; first compound 8 µM
  relative viability: 1.24
NCI-H1755; first compound 0.08 µM
  relative viability: 0.87
NCI-H1755; first compound 0.253 µM
  relative viability: 0.853
NCI-H1755; first compound 0.8 µM
  relative viability: 0.836
NCI-H1755; first compound 2.53 µM
  relative viability: 0.541
NCI-H1755; first compound 8 µM
  relative viability: 0.824
NCI-H1993; first compound 0.08 µM
  relative viability: 0.862
NCI-H1993; first compound 0.253 µM
  relative viability: 0.991
NCI-H1993; first compound 0.8 µM
  relative viability: 0.891
NCI-H1993; first compound 2.53 µM
  relative viability: 0.701
NCI-H1993; first compound 8 µM
  relative viability: 0.986
UMC-11; first compound 0.08 µM
  relative viability: 0.688
UMC-11; first compound 0.253 µM
  relative viability: 0.625
UMC-11; first compound 0.8 µM
  relative viability: 0.651
UMC-11; first compound 2.53 µM
  relative viability: 0.497
UMC-11; first compound 8 µM
  relative viability: 0.461
NCI-H358; first compound 0.08 µM
  relative viability: 0.63
NCI-H358; first compound 0.253 µM
  relative viability: 0.696
NCI-H358; first compound 0.8 µM
  relative viability: 0.59
NCI-H358; first compound 2.53 µM
  relative viability: 0.565
NCI-H358; first compound 8 µM
  relative viability: 0.618
NCI-H838; first compound 0.08 µM
  relative viability: 0.786
NCI-H838; first compound 0.253 µM
  relative viability: 0.561
NCI-H838; first compound 0.8 µM
  relative viability: 0.807
NCI-H838; first compound 2.53 µM
  relative viability: 0.792
NCI-H838; first compound 8 µM
  relative viability: 0.789
NCI-H647; first compound 0.08 µM
  relative viability: 1.06
NCI-H647; first compound 0.253 µM
  relative viability: 1.05
NCI-H647; first compound 2.53 µM
  relative viability: 0.842
NCI-H647; first compound 8 µM
  relative viability: 0.603
NCI-H2347; first compound 0.08 µM
  relative viability: 0.735
NCI-H2347; first compound 0.253 µM
  relative viability: 0.752
NCI-H2347; first compound 0.8 µM
  relative viability: 0.63
NCI-H2347; first compound 2.53 µM
  relative viability: 0.711
NCI-H2347; first compound 8 µM
  relative viability: 0.648
HARA; first compound 0.08 µM
  relative viability: 1
HARA; first compound 0.253 µM
  relative viability: 1.15
HARA; first compound 0.8 µM
  relative viability: 0.944
HARA; first compound 8 µM
  relative viability: 1.05
